Laboratory results taken from PubChem BioAssay (NCI).
Values joined by “and” are separate entries in the source; they are usually repeats but may differ in a detail not shown here. Equal entries are not always repeated.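 All cell lines were grown in 96-well plates and treated with compound for 48 hours. Abbreviation: GI50, concentration required for 50% inhibition of growth. Definition used: TGI = concentration required for complete inhibition of growth.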

What was measured:
Assay in all cases: NCI tumour cell line growth inhibition, 48 h
[1] = tested on: NCI-H226 lung
[2] = tested on: SF-295 CNS
[3] = tested on: SK-MEL-2 melanoma
[4] = tested on: HT29 colon
[5] = tested on: UO-31 renal
[6] = tested on: HCT-15 colon
[7] = tested on: HCC-2998 colon
[8] = tested on: DMS 114 small cell lung
[9] = tested on: COLO 205 colon
[10] = tested on: NCI-H522 lung
[11] = tested on: SK-OV-3 ovarian
[12] = tested on: HCT-116 colon
[13] = tested on: NCI-H23 lung
[14] = tested on: CCRF-CEM leukemia
[15] = tested on: MOLT-4 leukemia
[16] = tested on: U251 CNS
[17] = tested on: 786-0 renal
[18] = tested on: SF-268 CNS
[19] = tested on: RPMI-8226 leukemia
[20] = tested on: M14 melanoma
[21] = tested on: IGROV1 ovarian
[22] = tested on: LXFL 529 NSCLC
[23] = tested on: A549 NSCLC
[24] = tested on: OVCAR-4 ovarian
[25] = tested on: SF-539 CNS
[26] = tested on: HOP-92 NSCLC
[27] = tested on: OVCAR-8 ovarian
[28] = tested on: DLD-1 colon
[29] = tested on: ACHN renal
[30] = tested on: UACC-62 melanoma
[31] = tested on: CAKI-1 renal
[32] = tested on: OVCAR-5 ovarian
[33] = tested on: SW-620 colon
[34] = tested on: SR leukemia
[35] = tested on: KM20L2 colon
[36] = tested on: EKVX NSCLC
[37] = tested on: HL-60(TB) leukemia
[38] = tested on: UACC-257 melanoma
[39] = tested on: MALME-3M melanoma
[40] = tested on: SN12C renal
[41] = tested on: SNB-19 CNS
[42] = tested on: A498 renal
[43] = tested on: SK-MEL-28 melanoma
[44] = tested on: M19-MEL melanoma
[45] = tested on: DMS 273 small cell lung
[46] = tested on: KM12 colon
[47] = tested on: LOX IMVI melanoma
[48] = tested on: RXF 393 renal
[49] = tested on: TK-10 renal
[50] = tested on: HOP-62 NSCLC
[51] = tested on: SNB-75 CNS
[52] = tested on: XF 498 CNS
[53] = tested on: SNB-78 CNS
[54] = tested on: K-562 leukemia
[55] = tested on: SK-MEL-5 melanoma
[56] = tested on: OVCAR-3 ovarian
[57] = tested on: NCI-H460 lung
[58] = tested on: MCF7 breast
[59] = tested on: DU-145 prostate
[60] = tested on: MDA-MB-435
[61] = tested on: NCI/ADR-RES ovarian
[62] = tested on: BT-549 breast
[63] = tested on: PC-3 prostate
[64] = tested on: MDA-N
[65] = tested on: MDA-MB-231 breast
[66] = tested on: T-47D breast
[67] = tested on: HS 578T breast

`COC(=O)N/N=C(\C)C(CN(C)C)C(c1ccccc1)c1c(O)c2ccccc2oc1=O` (stereo not drawn) showed a TGI [1] greater than 100000 nM, a TGI [2] greater than 100000 nM and a TGI [3] greater than 100000 nM. For the same compound, the TGI [4] was greater than 100000 nM, the TGI [5] was greater than 100000 nM and the TGI [6] was greater than 100000 nM. It also gave a TGI [7] greater than 100000 nM, a TGI [8] greater than 100000 nM and a TGI [9] greater than 100000 nM. The TGI [10] was greater than 100000 nM, the TGI [11] was greater than 100000 nM and the TGI [12] was greater than 100000 nM. It also gave a TGI [13] greater than 100000 nM, a TGI [14] greater than 100000 nM and a TGI [15] greater than 100000 nM. For the same compound, the TGI [16] was greater than 100000 nM, the TGI [17] was greater than 100000 nM and the TGI [18] was greater than 100000 nM. For the same compound, the TGI [19] was greater than 100000 nM, the TGI [20] was greater than 100000 nM and the TGI [21] was greater than 100000 nM. It also gave a TGI [22] greater than 100000 nM, a TGI [23] greater than 100000 nM and a TGI [24] greater than 100000 nM. The TGI [25] was greater than 100000 nM, the TGI [26] was greater than 100000 nM and the TGI [27] was greater than 100000 nM. For the same compound, the TGI [28] was greater than 100000 nM, the TGI [29] was greater than 100000 nM and the TGI [30] was greater than 100000 nM. The TGI [31] was greater than 100000 nM, the TGI [32] was greater than 100000 nM and the TGI [33] was greater than 100000 nM. It also gave a TGI [34] greater than 100000 nM, a TGI [35] greater than 100000 nM and a TGI [36] greater than 100000 nM. The TGI [37] was greater than 100000 nM, the TGI [38] was greater than 100000 nM and the TGI [39] was greater than 100000 nM. It also gave a TGI [40] greater than 100000 nM, a TGI [41] greater than 100000 nM and a TGI [42] greater than 100000 nM. It also gave a TGI [43] greater than 100000 nM, a TGI [44] greater than 100000 nM and a TGI [45] greater than 100000 nM. It also gave a TGI [46] greater than 100000 nM, a TGI [47] greater than 100000 nM and a TGI [48] greater than 100000 nM. It also gave a TGI [49] greater than 100000 nM, a TGI [50] greater than 100000 nM and a TGI [51] greater than 100000 nM. For the same compound, the TGI [52] was greater than 100000 nM, the TGI [53] was greater than 100000 nM and the TGI [54] was greater than 100000 nM. It also gave a TGI [55] greater than 100000 nM.
Compound `NC(=S)N/N=C1/CN(c2ccc(Cl)c(Cl)c2)CC(=O)C1c1nc2ccccc2s1` (stereo not drawn) has a TGI [1] greater than 100000 nM, a TGI [2] greater than 100000 nM and a TGI [3] greater than 100000 nM. For the same compound, the TGI [4] was greater than 100000 nM, the TGI [5] was greater than 100000 nM and the TGI [6] was greater than 100000 nM. It also gave a TGI [7] greater than 100000 nM, a TGI [8] greater than 100000 nM and a TGI [56] greater than 100000 nM. It also gave a TGI [9] greater than 100000 nM, a TGI [10] greater than 100000 nM and a TGI [11] greater than 100000 nM. The TGI [12] was greater than 100000 nM, the TGI [13] was greater than 100000 nM and the TGI [14] was greater than 100000 nM. It also gave a TGI [16] greater than 100000 nM, a TGI [17] greater than 100000 nM and a TGI [18] greater than 100000 nM. For the same compound, the TGI [19] was greater than 100000 nM, the TGI [20] was greater than 100000 nM and the TGI [21] was greater than 100000 nM. For the same compound, the TGI [22] was greater than 100000 nM, the TGI [23] was greater than 100000 nM and the TGI [24] was greater than 100000 nM. It also gave a TGI [25] greater than 100000 nM, a TGI [26] greater than 100000 nM and a TGI [27] greater than 100000 nM. For the same compound, the TGI [28] was greater than 100000 nM, the TGI [29] was greater than 100000 nM and the TGI [30] was greater than 100000 nM. The TGI [31] was greater than 100000 nM, the TGI [32] was greater than 100000 nM and the TGI [33] was greater than 100000 nM. The TGI [35] was greater than 100000 nM, the TGI [36] was greater than 100000 nM and the TGI [37] was greater than 100000 nM. For the same compound, the TGI [38] was greater than 100000 nM, the TGI [39] was greater than 100000 nM and the TGI [40] was greater than 100000 nM. It also gave a TGI [41] greater than 100000 nM, a TGI [42] greater than 100000 nM and a TGI [43] greater than 100000 nM. For the same compound, the TGI [44] was greater than 100000 nM, the TGI [45] was greater than 100000 nM and the TGI [46] was greater than 100000 nM. For the same compound, the TGI [47] was greater than 100000 nM, the TGI [48] was greater than 100000 nM and the TGI [49] was greater than 100000 nM. It also gave a TGI [50] greater than 100000 nM, a TGI [51] greater than 100000 nM and a TGI [52] greater than 100000 nM. It also gave a TGI [53] greater than 100000 nM, a TGI [54] greater than 100000 nM and a TGI [57] greater than 100000 nM. It also gave a TGI [55] greater than 100000 nM.
For `CNCCCNc1c2ccccc2nc2cccc([N+](=O)[O-])c12`, the TGI [1] was 52.1 nM, the TGI [2] was 27.9 nM and the TGI [3] was 7.98 nM. The TGI [4] was 18.5 nM, the GI50 [5] was 15.8 nM and the TGI [5] was 24.1 nM and 68.2 nM. For the same compound, the TGI [6] was 20.7 nM and 11.6 nM, the TGI [7] was 17.3 nM and the TGI [8] was 10.8 nM. It also gave a TGI [56] of 14.9 nM, a TGI [9] of 5.86 nM and a TGI [10] of 2.2 nM. For the same compound, the TGI [11] was 42.7 nM, the TGI [12] was 17 nM and 10.8 nM and the TGI [13] was 5.64 nM. The TGI [14] was 14.3 nM, the TGI [16] was 51.9 nM and the TGI [17] was 24.7 nM. The TGI [18] was 16.6 nM and 21.1 nM, the TGI [20] was 8.46 nM and the TGI [21] was 20.1 nM and 27.9 nM. For the same compound, the TGI [58] was 89 nM, the TGI [22] was 28.8 nM and the TGI [23] was 5.87 nM and 10.6 nM. For the same compound, the TGI [24] was 5.43 nM, the TGI [25] was 16.3 nM and 17.2 nM and the TGI [26] was 4.23 nM. It also gave a TGI [27] of 20.5 nM, a TGI [28] of 26.4 nM and a TGI [29] of 15.2 nM. It also gave a TGI [59] of 19.2 nM, a TGI [60] of 3.24 nM and a TGI [30] of 9.42 nM. For the same compound, the TGI [31] was 27.1 nM, the TGI [61] was 34.6 nM and the TGI [32] was 22 nM. The TGI [33] was 35.7 nM and 10.1 nM, the TGI [35] was 45.8 nM and the TGI [62] was 10.1 nM. The TGI [36] was 22.6 nM and 38.9 nM, the TGI [63] was 4.89 nM and the TGI [38] was 49.5 nM. The TGI [39] was 9.97 nM, the TGI [40] was < 31.8 nM and 18.1 nM and the TGI [41] was 30.9 nM and 130 nM. The TGI [42] was 7.51 nM, the TGI [43] was 27.9 nM and 13.8 nM and the TGI [44] was 17.1 nM. The TGI [45] was 46.5 nM, the TGI [46] was 67.7 nM and the TGI [47] was 16 nM. For the same compound, the TGI [48] was 2.17 nM, the TGI [49] was 32.7 nM and the TGI [50] was 12.9 nM. It also gave a TGI [51] of 14.2 nM, a TGI [64] of 3.09 nM and a TGI [65] of 5.22 nM. For the same compound, the TGI [52] was 7.24 nM, the TGI [53] was 12.4 nM and 13.1 nM and the TGI [57] was 2.21 nM and 10.3 nM. It also gave a TGI [66] of 13.9 nM, a TGI [67] of 8.26 nM and a TGI [55] of 9.82 nM.
